Assay results published in patent publication US20040009939A1, “Methods of enhancing immune induction involving MDA-7” (Board of Regent, The University of Texas System, priority 2002, published 2004).

Assays:
Assay type in all cases: cell-based, human
[1] = tested on: eIF-2α protein synthesis inhibition; assay: Measurement of cellular protein synthesis; conditions: with 2-AP
Description: Cells were treated with Ad-mda7 or Ad-Luc for 48 hrs. Where indicated, cells were treated with 1 mM 2-AP for 48 hrs. Measurement of protein synthesis was performed as previously described (14). After treatment, approximately 1×10^6 cell equivalents were incubated with L-[U-^14C] amino acid mixture (Amersham, Piscataway, N.J.) at 2 μCi/ml for 10 min at 37° C. The reaction was terminated by the addition of 20% (wt/vol) trichloroacetic acid and the radioactivity in the acid-precipitable fraction was measured in a scintillation counter.

[2] = tested on: A549 (wt p53), H1299 (null p53), and H322J (mutant p53) lung cancer cells; assay: Apoptosis by propidium iodide staining and FACS in lung cancer cells; conditions: combination with 2-AP
Description: (§1) Apoptotic cells by propidium iodide staining and FACS analysis were measured. Cells were harvested, pelleted by centrifugation and resuspended in phosphate-buffered saline containing 50 μg/ml propidium iodide, 0.1% Triton X-100, and 0.1% sodium citrate. Samples were stored at 4° C. for 16 hours and vortexed prior to FACS analysis (Becton-Dickenson FACScan, Mountain View, Calif.; FL-3 channel). Cellular viability was assessed with the XTT assay by growing cells in 96-well plates at 100 μL volume/well. After treatment with Ad-mda7 or control vectors, cells were incubated with the tetrazolium salt XTT according to the Roche protocol (Roche Diagnostics, Mannheim, Germany). Viability was assessed spectrophotometrically on an enzyme-linked immunosorbent assay (ELISA) plate reader.
(§2) Apoptotic cells were measured by propidium iodide staining and FACS analysis. Cells were harvested, pelleted by centrifugation and resuspended in phosphate-buffered saline (PBS) containing 50 μg/ml propidium iodide, 0.1% Triton X-100, and 0.1% sodium citrate. Samples were stored at 4° C. for 16 hours and vortexed prior to FACS analysis (Becton-Dickenson FACScan, Mountain View, Calif.; FL-3 channel). Cellular viability was assessed with the XTT assay by growing cells in 96-well plates in 100 μl volume/well. […] Viability was assessed spectrophotometrically on an enzyme-linked immunosorbent assay (ELISA) plate reader.

PKR = assay: Immunoblot and confocal analysis of PKR, PKR substrates and caspases; conditions: A549; immunoprecipitation; 10 mM 2-AP
Description: Forty-eight hours after transfection, cell extracts were prepared for immunoblot assays as previously described (Pataer et al, 2000). The following antibodies were used: Bc1-2, Bak, Bax, PKR (K-17), eIF-2α, β-actin, p38 (A-12), phosphospecific p38 (D-8), stat1 (C-136), phosphospecific stat1 (A-2), stat3 (F-2), phosphospecific stat3 (B-7), anti-Tyk2 (C-20) and phosphospecific anti-Tyk (PY-99) (Santa Cruz Biotechnology, Santa Cruz, Calif.); Caspase 3, caspase-9, caspase-8 and Bid (PharMingen , San Diego, Calif.) and the phosphospecific PKR [pT451] and eIF-2a [pS51] (BioSource International, Camarillo, Calif.). The polyclonal and monoclonal antibodies to MDA-7 were obtained from Introgen Therapeutics, Inc. (Houston, Tex.).
4×10^5 cells/well were grown on chamber slides overnight and infected with Ad-mda7, Ad-Luc or PBS. 48 hrs later cells were washed with PBS and fixed overnight in 4% paraformaldehyde. Cells were then permeabilized for 20 min at 4° C. with 0.2% triton-X10O and blocked with 5% normal horse serum and 1% normal goat serum. Rabbit polyclonal anti-MDA7 and mouse monoclonal anti-PKR(B-10) were incubated overnight at 4° C. and developed with Rhodamine or FITC goat anti-rabbit IgG for 30-45 min at 37° C. Cells were then visualized under confocal microscopy.

[3] = tested on: A549 and H1299 lung cancer cell lines; assay: XTT cellular viability assay; conditions: 2-AP (10 mM) alone
Description: as §1, §2

NF-κB = NF-κB activation (electromobility shift assay)
Description: Studies were conducted to determine whether transgenic MDA-7 expression results in NF-κB activation, and to evaluate the role of NF-κB in protecting tumor cells from MDA-7 induced apoptosis.

H1299 cells = assay: MDA-7 secretion and trypan blue cytotoxicity with glycosylation and secretion inhibitors; conditions: for concentration that completely blocks secretion of MDA-7 protein: Ad-mda7 transduced H1299
Description: Since glycosylated proteins generally acquire sugars during sorting through the ER and Golgi apparatus, the effect of glycosylation and secretion inhibitors on MDA-7 intracellular processing and subsequent secretion was evaluated. Tunicamycin inhibits the addition of sugars to proteins within the ER, while brefeldin A inhibits vesicle transport of proteins from the ER to the Golgi. Both disrupt the secretion of proteins. The cytotoxicity caused by Ad-mda7 in the presence of these glycosylation and secretion inhibitors was evaluated. Tunicamycin and brefeldin A levels were titrated until inhibition of secretion of MDA-7 protein could be detected. As shown in FIGS. 26A and 26B, treatment of H1299 cells with 2 μg/ml tunicamycin completely blocks secretion of MDA-7 protein, whereas less than 1 μg/ml of brefeldin A is required for this effect. Note that blocking secretion using either drug results in substantial intracellular accumulation of MDA-7 protein. […] The enhanced killing may be due to the tunicamycin sensitizing cells to apoptotic death. […] Therefore, secreted MDA-7 protein is unable to induce killing in cancer cells and is not required for Ad-mda7 mediated apoptosis and eventual killing of cancer cells (FIG. 32B).

H1299 and A549 cells = assay: Mitochondrial membrane potential (TMRE) and apoptosis; conditions: Staurosporine 1 μM
Description: Apoptotic cells were measured by propidium iodide staining and FACS analysis. Cells were harvested, pelleted by centrifugation and resuspended in phosphate-buffered saline (PBS) containing 50 μg/ml propidium iodide, 0.1% Triton X-100, and 0.1% sodium citrate. Samples were stored at 4° C. for 16 hours and vortexed prior to FACS analysis (Becton-Dickenson FACScan, Mountain View, Calif.; FL-3 channel). Cellular viability was assessed with the XTT assay by growing cells in 96-well plates in 100 μl volume/well. On day one, cells were transduced with Ad-mda-7, Ad-p53 or control vectors. On day two, the cells were incubated with the tetrazolium salt XTT for 4 to 24 hours according to the Roche protocol (Roche Diagnostics, Mannheim, Germany). Viability was assessed spectrophotometrically on an enzyme-linked immunosorbent assay (ELISA) plate reader.
The potential-sensitive fluorochrome tetramethylrhodamine, ethylester, perchlorate (TMRE) (Molecular Probes, Eugene, Oreg.) was used to measure ΔΨm. Cells were incubated with 25 nM TMRE for 30 minutes at 37° C. in the dark, washed in PBS, and analyzed by FACS on the FL-2 channel (FACScan: Becton Dickinson, Mountain View, Calif.).

HUVEC and HMVEC cells = assay: Endothelial cell differentiation (tube formation) assay; conditions: HUVEC and HMVEC; 24 h
Description: Endothelial cell differentiation (tube formation) assays were done using an in vitro angiogenesis assay kit (Chemicon, Temecula, Calif.). Briefly, HUVEC and HMVEC cells were grown to 80% confluency, collected, resuspended in growth medium and plated at a concentration of 2×10^4 cells/well in a 96-well plate coated with matrigel (Chemicon, Temecula, Calif.). To the wells, varying concentrations of MDA-7 protein were added and incubated for 24 h at 37° C. Wells that were not treated with MDA-7 protein served as a negative control. The ability of sMDA-7 to inhibit tube formation was determined and quantitated by counting the number of tubes under bright field microscopy. All samples were tested in duplicate. For comparative studies using MDA-7 and endostatin (Calbiochem), cells were plated as described above and exposed to varying concentration of the proteins. […] All other experimental procedures were the same as described above.

Nc1ncc2[nH]cnc2n1.O=[N+]([O-])O [2-AP, 2-Aminopurine Nitrate Salt]
protein synthesis in Ad-mda7 treated cells [1]: reversal of eIF-2α protein synthesis inhibition
apoptosis induction and cell killing in cells treated with Ad-mda7 [2]: blocked apoptosis induction and cell killing in a dose dependent manner
PKR and eIF-2α phosphorylation in Ad-mda7 treated cells (PKR): attenuated PKR activation with inhibition of both PKR and eIF-2α phosphorylation
cell viability [3]: no effect on cell viability

CC1=C(CC(=O)O)c2cc(F)ccc2/C1=C\c1ccc([S+](C)[O-])cc1 (stereo not drawn) [Sulindac]
TNF-mediated NF-κB activation (NF-κB): inhibited TNF-mediated NF-κB activation in a dose-dependent manner
activation of the NF-κB pathway (NF-κB): inhibited the activation of the NF-κB pathway

C[C@H]1CCC/C=C/[C@@H]2C[C@H](O)C[C@H]2[C@H](O)/C=C/C(=O)O1 [brefeldin A]
concentration that completely blocks secretion of MDA-7 protein (H1299 cells): less than 1 μg/ml

CN[C@@H]1C[C@H]2O[C@@](C)([C@@H]1OC)n1c3ccccc3c3c4c(c5c6ccccc6n2c5c31)C(=O)NC4 [staurosporine]
MMP changes and apoptosis (H1299 and A549 cells; A549 cells): induces MMP changes and apoptosis
MMP changes and apoptosis (H1299 and A549 cells; H1299 cells): able to induce MMP changes and the induction of apoptosis

endostatin [reference compound]
inhibition of endothelial tube formation (HUVEC and HMVEC cells): the inhibitory effect by endostatin was not observed

tunicamycin
cell death, inhibitor alone (H1299 cells; 2 μg/ml tunicamycin, trypan blue): did not induce death
concentration that completely blocks secretion of MDA-7 protein (H1299 cells): 2 µg/mL
